The record followed here is US6333176A (Degussa Aktiengesellschaft, priority 1994, dated 2001).

Peptide text beside a SMILES is read from it.

The first assay concerns the target T1, peptide amidase from Xanthomonas maltophilia (Stenotrophomonas maltophilia, UniProt Q8RJN5).
T1 construct: wild type, not recombinant
T1 sequence (Q8RJN5 34-540): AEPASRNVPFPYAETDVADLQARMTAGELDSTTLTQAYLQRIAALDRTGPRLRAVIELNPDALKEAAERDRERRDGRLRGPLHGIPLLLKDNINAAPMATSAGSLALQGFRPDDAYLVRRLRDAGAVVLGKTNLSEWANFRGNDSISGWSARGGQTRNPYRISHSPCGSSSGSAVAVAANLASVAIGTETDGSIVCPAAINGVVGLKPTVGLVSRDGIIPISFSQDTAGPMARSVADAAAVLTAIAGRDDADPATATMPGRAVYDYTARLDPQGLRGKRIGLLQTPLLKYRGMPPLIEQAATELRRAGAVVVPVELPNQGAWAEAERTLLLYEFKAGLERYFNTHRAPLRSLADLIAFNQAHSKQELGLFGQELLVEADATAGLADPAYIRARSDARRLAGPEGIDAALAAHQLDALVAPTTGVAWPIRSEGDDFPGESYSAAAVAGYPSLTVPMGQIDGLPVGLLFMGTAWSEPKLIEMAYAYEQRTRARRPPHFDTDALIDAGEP
The assay can be described thus: Substrate spectrum of peptide amidase, enzymatic determination of the released ammonia. The format is biochemical. The note with it: substrate 10 mM, 18 mU peptide amidase per ml, 50 mM tris/HCl pH 7.5, 30° C., 3 hours. The method, then: (§1) 18 mU of peptide amidase (purification state after the gel filtration) per ml test batch was used for the substrate spectrum of peptide amidase from Xanthomonas maltophilia. The concentration of the tested substrates was 10 mM in the reaction batch. Unless otherwise indicated, L-amino acid derivatives were used. The incubation took place in 50 mM tris/HCl, pH 7.5 at 30° C. for 3 hours. The reaction was stopped by heating for 5 minutes at 95° C. The determination of activity took place using enzymatic determination of the released ammonia (Bergmeyer, U. (1985): Methods of Enzymatic Analysis, p. 459, VCH Verlagsgesellschaft, Weinheim).
As to `CC(=O)N[C@@H](CS)C(N)=O`, the “Relative conversion (conversion of N-acetyl amino acid amides, Table 4b)” value came to 82%.
Still for that read-out and setting: to `CC(=O)NC(CC(C)(C)C)C(N)=O` (racemic) [Ac-D,L-neopentylglycine amide, Nα -acetyl-DL-neopentylglycine Amide] belongs 131%.
Regarding `CSCCC(NC(N)=O)C(N)=O` (racemic) [N-Carbamoyl-D,L-Met-NH2], the “Relative conversion (influence of protective group and adjacent amino acid, Table 4c)” value worked out at 77%.
On the same count and under the same terms, to `CCOC(=O)NC(CCSC)C(N)=O` (racemic) [N-Ethoxy-D,L-Met-NH2, Nα -ethoxycarbonyl-DL-methionine amide] belongs 124%; to `COC(=O)NC(CCSC)C(N)=O` (racemic) [N-Methoxy-D,L-Met-NH2, Nα -methoxycarbonyl-DL-methionine Amide], 109%.
`CC(=O)N[C@@H](C)C(N)=O` [Ac-Ala-NH2]: the “Relative conversion (conversion of N-acetyl amino acid amides, Table 4b)” value is recorded as 182%.
Same read-out and setting: to `CC(=O)N[C@@H](CCCNC(=N)N)C(N)=O` [Ac-Arg-NH2] belongs 110%.
Still for that read-out and setting: to `CC(=O)N[C@@H](CCC(=O)O)C(N)=O` [Ac-Glu-NH2] belongs 162%.
For `CC(=O)N[C@@H](Cc1c[nH]cn1)C(N)=O` [Ac-His-NH2], the “Relative conversion (conversion of N-acetyl amino acid amides, Table 4b)” value is 177%.
Same read-out and setting: to `CC[C@H](C)[C@H](NC(C)=O)C(N)=O` [Ac-Ile-NH2] belongs 6%.
For `CC(=O)N[C@@H](CCCCN)C(N)=O` [Ac-Lys-NH2], the “Relative conversion (conversion of N-acetyl amino acid amides, Table 4b)” value is 175%.
Consider `CC(=O)N[C@@H](Cc1ccccc1)C(N)=O` [Ac-Phe-NH2], for which the “Relative conversion (conversion of N-acetyl amino acid amides, Table 4b)” value is recorded as 134%.
As to `CC(=O)N[C@H](C(N)=O)c1ccccc1` [Ac-Phg-NH2, N-acetylphenylglycine amide], the “Relative conversion (conversion of N-acetyl amino acid amides, Table 4b)” value worked out at 28%.
With `CC(=O)N1CCC[C@H]1C(N)=O` [Ac-Pro-NH2], the “Relative conversion (conversion of N-acetyl amino acid amides, Table 4b)” value is 0%.
The same measure, in the same setting: to `CC(=O)N[C@@H](CO)C(N)=O` [Ac-Ser-NH2] belongs 58%; to `CC(=O)N[C@H](C(N)=O)[C@@H](C)O` [Ac-Thr-NH2], 21%.
Consider `CC(=O)N[C@@H](Cc1c[nH]c2ccccc12)C(N)=O` [Ac-Trp-NH2], for which the “Relative conversion (conversion of N-acetyl amino acid amides, Table 4b)” value is listed as 157%.
For the compound `CC(=O)N[C@@H](Cc1ccc(O)cc1)C(N)=O` [Ac-Tyr-NH2], the “Relative conversion (conversion of N-acetyl amino acid amides, Table 4b)” value is listed as 123%; the “Relative conversion (influence of protective group and adjacent amino acid, Table 4c)” value worked out at 123%.
Take `CC(=O)N[C@H](C(N)=O)C(C)C` [Ac-Val-NH2]: the “Relative conversion (conversion of N-acetyl amino acid amides, Table 4b)” value amounted to 1%.
Take `C[C@H](N)C(=O)N[C@@H](C)C(N)=O` [Ala-Ala-NH2] (H-Ala-Ala-NH2): the “Relative conversion (conversion of dipeptide amides, Table 4a)” value stood at 211%; the “Relative conversion (influence of protective group and adjacent amino acid, Table 4c)” value is recorded as 211%.
Take `C[C@H](N)C(=O)N[C@@H](CC(N)=O)C(=O)O` [Ala-Asn-OH] (H-Ala-Asn-OH): the “Relative conversion (conversion of dipeptide amides, Table 4a)” value is 0%.
The same measure, in the same setting: the figure for `C[C@H](N)C(=O)N[C@@H](CCC(N)=O)C(=O)O` [Ala-Gln-OH] (H-Ala-Gln-OH) is 0%; for `C[C@H](N)C(=O)NCC(N)=O` [Ala-Gly-NH2] (H-Ala-Gly-NH2) it is 39%.
The same measure, in the same setting: the figure for `C[C@H](N)C(=O)N[C@@H](Cc1ccccc1)C(N)=O` [Ala-Phe-NH2] is 218%.
Consider `CSCC[C@H](NC(=O)[C@@H](N)CCCNC(=N)N)C(N)=O` [Arg-Met-NH2] (H-Arg-Met-NH2), for which the “Relative conversion (influence of protective group and adjacent amino acid, Table 4c)” value came out at 125%.
Still for that read-out and setting: the figure for `NC(=O)[C@H](Cc1ccc(O)cc1)NC(=O)c1ccccc1` [Bz-Tyr-NH2] is 173%.
With `NCC(=O)N[C@@H](CC(N)=O)C(=O)O` [Gly-Asn-OH] (H-Gly-Asn-OH), the “Relative conversion (conversion of dipeptide amides, Table 4a)” value was determined as 0%.
Same read-out and setting: to `NCC(=O)NCC(N)=O` [Gly-Gly-NH2] belongs 8%; to `NCC(=O)N[C@@H](Cc1ccccc1)C(N)=O` [Gly-Phe-NH2] (H-Gly-Phe-NH2), 214%.
Consider `NCC(=O)N[C@@H](Cc1ccc(O)cc1)C(N)=O` [Gly-Tyr-NH2] (H-Gly-Tyr-NH2), for which the “Relative conversion (conversion of dipeptide amides, Table 4a)” value was found to be 174%; the “Relative conversion (influence of protective group and adjacent amino acid, Table 4c)” value amounted to 174%.
For `NC(=O)[C@H](Cc1ccccc1)NC(=O)[C@@H](N)Cc1cnc[nH]1` [His-Phe-NH2] (H-His-Phe-NH2), the “Relative conversion (conversion of dipeptide amides, Table 4a)” value is 137%.
Turning to `CC(C)C[C@H](N)C(=O)N[C@@H](C)C(N)=O` [Leu-Ala-NH2] (H-Leu-Ala-NH2), the “Relative conversion (conversion of dipeptide amides, Table 4a)” value is given as 217%; the “Relative conversion (influence of protective group and adjacent amino acid, Table 4c)” value was determined as 217%.
Regarding `CC(C)C[C@H](N)C(=O)NCC(N)=O` [Leu-Gly-NH2] (H-Leu-Gly-NH2), the “Relative conversion (conversion of dipeptide amides, Table 4a)” value was 54%.
Still for that read-out and setting: the figure for `CC(C)C[C@H](N)C(=O)N[C@@H](Cc1ccccc1)C(N)=O` [Leu-Phe-NH2] (H-Leu-Phe-NH2) is 203%.
`C[C@H](NC(=O)[C@@H](N)Cc1ccccc1)C(N)=O` [Phe-Ala-NH2]: the “Relative conversion (conversion of dipeptide amides, Table 4a)” value amounted to 203%; the “Relative conversion (influence of protective group and adjacent amino acid, Table 4c)” value is listed as 203%.
As to `NC(=O)CNC(=O)[C@@H](N)Cc1ccccc1` [Phe-Gly-NH2] (H-Phe-Gly-NH2), the “Relative conversion (conversion of dipeptide amides, Table 4a)” value is 51%.
For `NC(=O)CNC(=O)[C@@H]1CCCN1` [Pro-Gly-NH2] (H-Pro-Gly-NH2), the “Relative conversion (conversion of dipeptide amides, Table 4a)” value amounted to 66%.
Still for that read-out and setting: to `NC(=O)[C@H](Cc1ccccc1)NC(=O)[C@@H]1CCCN1` [Pro-Phe-NH2] (H-Pro-Phe-NH2) belongs 158%; to `NC(=O)[C@H](Cc1ccccc1)NC(=O)[C@@H](N)CO` [Ser-Phe-NH2], 217%.
The same measure, in the same setting: the figure for `NC(=O)CNC(=O)[C@@H](N)Cc1ccc(O)cc1` [Tyr-Gly-NH2] is 54%.
Regarding `NC(=O)[C@H](Cc1ccccc1)NC(=O)[C@@H](N)Cc1ccc(O)cc1` [Tyr-Phe-NH2] (H-Tyr-Phe-NH2), the “Relative conversion (conversion of dipeptide amides, Table 4a)” value came out at 190%.
Still for that read-out and setting: the figure for `NC(=O)[C@@H]1CCCN1C(=O)[C@@H](N)Cc1ccc(O)cc1` [Tyr-Pro-NH2] (H-Tyr-Pro-NH2) is 0%; for `CC(C)[C@H](N)C(=O)NCC(N)=O` [Val-Gly-NH2] (H-Val-Gly-NH2) it is 22%; for `CC(C)[C@H](N)C(=O)N[C@@H](Cc1ccccc1)C(N)=O` [Val-Phe-NH2] (H-Val-Phe-NH2) it is 140%.
`C[C@H](NC(=O)OCc1ccccc1)C(N)=O` [Z-Ala-NH2]: the “Relative conversion (influence of protective group and adjacent amino acid, Table 4c)” value came out at 62%.
Still for that read-out and setting: to `C[C@@H](NC(=O)OCc1ccccc1)C(N)=O` [Z-D-Ala-NH2] belongs 0%.
For the compound “N-acetyl-naphthylalanine amide [Ac-Nal-NH2]”, the “Relative conversion (conversion of N-acetyl amino acid amides, Table 4b)” value is given as 84%.

A further assay has as its target T1, peptide amidase from Xanthomonas maltophilia. The assay can be described thus: Enzymatic conversion of unprotected amino acid amides, thin-layer chromatography. The format is biochemical. Conditions: substrate 10 mM. The method, then:
as §1
The following thin-layer chromatographic methods were used for the analysis of the substrates and products cited in table 4d. To this end 1 μl of the stopped reaction batch was applied.
For `C[C@H](N)C(N)=O` [H-Ala-NH2], the “Conversion (unprotected amino acid amides)” value amounted to 0 and the “Conversion (unprotected amino acid amides, Table 4d)” value was determined as 0.
In the case of `C[C@@H](N)C(N)=O` [H-D-Ala-NH2], the “Conversion (unprotected amino acid amides)” value was 0 and the “Conversion (unprotected amino acid amides, Table 4d)” value is reported as 0.
Turning to `CC(C)C[C@@H](N)C(N)=O` [H-D-Leu-NH2], the “Conversion (unprotected amino acid amides)” value is given as 0 and the “Conversion (unprotected amino acid amides, Table 4d)” value was determined as 0.
In the case of `CC[C@H](C)[C@H](N)C(N)=O` [H-Ile-NH2], the “Conversion (unprotected amino acid amides)” value is reported as 0 and the “Conversion (unprotected amino acid amides, Table 4d)” value is 0.
In the case of `CC(C)C[C@H](N)C(N)=O` [H-Leu-NH2], the “Conversion (unprotected amino acid amides)” value is 0 and the “Conversion (unprotected amino acid amides, Table 4d)” value stood at 0.
As for `NCCCC[C@H](N)C(N)=O` [H-Lys-NH2], the “Conversion (unprotected amino acid amides)” value is on record as 0 and the “Conversion (unprotected amino acid amides, Table 4d)” value came out at 0.
In the case of `CSCC[C@H](N)C(N)=O` [H-Met-NH2], the “Conversion (unprotected amino acid amides)” value was 0 and the “Conversion (unprotected amino acid amides, Table 4d)” value is recorded as 0.
As to `NC(=O)[C@@H](N)Cc1ccccc1` [H-Phe-NH2], the “Conversion (unprotected amino acid amides)” value is recorded as 0 and the “Conversion (unprotected amino acid amides, Table 4d)” value stood at 0.
